Results: paper PMC8383318, “Preclinical Pharmacokinetics, Tissue Distribution, and Primary Safety Evaluation of Indo5, a Novel Selective Inhibitor of c-Met and Trks” (Frontiers in Pharmacology, 2021)

How the values were obtained:
[1] = Pharmacokinetic study in rat plasma (IV and oral), LC-MS/MS, non-compartmental analysis; type: in vivo, Wistar rats
Experimental: For intravenous (IV) treatment, Indo5 was dissolved in DMSO (solution, 1 mg/ml) and injected into the lateral tail vein of rats (1 mg/kg, n = 3). For intragastric treatment, Indo5 was dissolved in 5% CMC-Na (suspension, 20 mg/ml). The rats were orally administered with Indo5 (100 mg/kg, n = 3) using a 20-G gavage needle. All of the animals were given a standard diet 4 h after the dosing. Blood samples (approximately 400 μl) were collected from each rat and placed into heparinized tubes before the dosing, and at 5, 15, 30, 60, 120, 240, and 480 min after the dosing. Plasma (100 μl) was harvested by centrifuging blood samples at 3,600 g for 10 min at room temperature followed by immediate processing for the analyses.
Briefly, 400 μl acetonitrile was added to 100 μl rat plasma or tissue homogenate, vortexed for 30 s, and centrifuged at 10,000 g for 10 min at room temperature to precipitate proteins. Subsequently, the supernatant (40 μl) was introduced into the HPLC/MS system. Plasma or tissue concentrations of Indo5 were determined using HPLC-MS/MS validated for pharmacokinetics.
The plasma concentration–time data obtained after intravenous and intragastric administrations were subjected to non-compartmental analyses based on the statistical moment theory. Pharmacokinetic parameters were calculated using WinNorlin 5.2 (Certara; www.certara.com/). These parameters included the maximum plasma concentration (Cmax), time to reach Cmax (Tmax), elimination half-life (t1/2), area under the plasma concentration–time curve from time zero to infinity (AUC0–∞), mean residence time (MRT), and clearance (CL). The absolute oral bioavailability was calculated by dividing the AUCtot obtained from oral administration by the AUCtot obtained from IV administration, and the calculation was adjusted using the doses that had been administered via oral and IV routes.

[2] = Tissue-distribution study in rats; type: in vivo, Wistar rats
[3] = set-up: species or system mice; details: mouse, in vivo, po, 60 mg/kg
TrkA = test system: TrkA; set-up: method as in Luo et al., 2019; details: ref Luo et al., 2019; read-out: half-maximal inhibitory concentration, TrkA kinase activity; cited from earlier work
TrkB = test system: TrkB; set-up: method as in Luo et al., 2019; details: ref Luo et al., 2019; read-out: half-maximal inhibitory concentration, TrkB kinase activity; cited from earlier work
HCC cells = test system: HCC cells; set-up: method as in Luo et al., 2019; details: ref Luo et al., 2019, cited from earlier work
[4] = oral (p.o.) 100 mg/kg in CMC-Na suspension, n = 3

Structure (SMILES): Cc1ccccc1NS(=O)(=O)c1ccc2c(c1)C(=Cc1nc3ccccc3[nH]1)C(=O)N2 [Indo5, 3-(1H-benzimidazol-2-methylene)-5-(2-methylphenylaminosulfo)-2-indolone]
- Tmax ([1]; IV 1 mg/kg): 1 min
- AUC0-t ([1]; IV 1 mg/kg in DMSO, n = 3): 158.6 ± 27.9 ng·h/mL
- AUC0-∞ ([1]; IV 1 mg/kg in DMSO, n = 3): 163.4 ± 28.3 ng·h/mL
- CL ([1]; IV 1 mg/kg in DMSO, n = 3): 6,121.6 ± 1,124.8 ml/h/kg
- Cmax ([1]; IV 1 mg/kg in DMSO, n = 3): 1,565.3 ± 286.2 ng/ml
- MRT0-t ([1]; IV 1 mg/kg in DMSO, n = 3): 10.8 ± 2.4 min
- MRT0-∞ ([1]; IV 1 mg/kg in DMSO, n = 3): 15.6 ± 3.6 min
- Tmax ([1]; IV 1 mg/kg in DMSO, n = 3): 1 min
- t1/2 ([1]; IV 1 mg/kg in DMSO, n = 3): 37.8 ± 6.6 min
- AUC0-t [1, 4]: 251.5 ± 43.5 ng·h/mL
- AUC0-∞ [1, 4]: 255.7 ± 44.9 ng·h/mL
- CL [1, 4]: 391056.4 ± 77,945.8 ml/h/kg
- Cmax [1, 4]: 54.7 ± 10.4 ng/mL
- MRT0-t [1, 4]: 172 ± 36.6 min
- MRT0-∞ [1, 4]: 179 ± 37.8 min
- Tmax [1, 4]: 120 ± 28.8 min
- Vd [1, 4]: 706.349 ± 106.9412 L/kg
- t1/2 [1, 4]: 75 ± 14.4 min
- crossing of blood–brain and blood–testes barriers [2]: could not cross the blood–brain or blood–testes barriers
- histological analysis of liver tissue [3]: no pathological changes
- number and frequencies of immune cells in the liver (flow cytometry) [3]: did not affect the number or frequencies of immune cells in the liver
- IC50 (TrkA): 28 nM
- IC50 (TrkB): 25 nM
- survival of mice with hepatic orthotopic tumors (HCC cells; hepatic orthotopic tumors): increases the survival
- growth of HCC cells in xenograft-transplanted mice (HCC cells; xenograft-transplanted mice): significantly decreases the growth of HCC cells
